Laboratory results taken from US12570639B2, “Tetrahydroquinoline derivative and medicinal use thereof” (Toray Industries, Inc., priority 2020, dated 2026).

Experiments:
[1] = In vitro radical scavenging action (DPPH method); conditions: 30 minutes at room temperature, maximum concentration 100 μmol/L
[2] = test system: MOG-induced experimental autoimmune encephalomyelitis mouse model; experiment: Activity assessment 4 in MOG-induced experimental autoimmune encephalomyelitis mouse model; type: in vivo, C57BL/6J mice; conditions: 10 mg/kg orally twice daily for 16 days starting 52 days after MOG35-55 inoculation; vs vehicle-dosing group (2.25)
Procedure: (§1) A PBS solution prepared to contain a synthetic partial peptide of MOG (MOG35-55; CSBio) at a concentration of 4 mg/mL was mixed with an equal volume of Freund's complete adjuvant, and a total of 0.1 mL (0.05 mL per flank) of the resulting MOG35-55 dosing solution was inoculated intradermally into the bilateral flanks of C57BL/6J mice (male, 10 weeks old, Charles River Laboratories Japan, Inc.). On the day of inoculation of the MOG35-55 dosing solution and on the second day after the inoculation, 200 μL of pertussis toxin (Sigma Co. LLC) prepared at a concentration of 1 μg/mL was further administered intraperitoneally to the mice.
(§2) The compound of Example 11, the compound of Example 32, and the compound of Example 36 were used as test compounds to assess the effect of the test compounds on increase of neurological score in the MOG-induced experimental autoimmune encephalomyelitis mouse model. […] In addition, the score was determined by the following criteria: 0, normal; 0.5, partial drooping tail; 1, full drooping tail or hind-limb weakness; 2, full drooping tail and hind-limb weakness; 3, hind-limb partial paralysis; 4, hind-limb complete paralysis; 5, fore- and hind-limb complete paralysis. […]

[3] = test system: Human fibrosarcoma cells (HT-1080 cells); experiment: In vitro inhibitory action against ferroptosis (Erastin-induced cell death, Cell Counting Kit-8); type: cell-based; conditions: Erastin 3 μmol/L, 24 hours
[4] = test system: MOG-induced experimental autoimmune encephalomyelitis mouse model; experiment: Activity assessment 6 in MOG-induced experimental autoimmune encephalomyelitis mouse model; type: in vivo, C57BL/6J mice; conditions: 10 mg/kg orally twice daily for 12 days starting 52 days after MOG35-55 inoculation; vs vehicle-dosing group (2.13)
Procedure: as §1, §2

[5] = test system: MOG-induced experimental autoimmune encephalomyelitis mouse model; experiment: Activity assessment 5 in MOG-induced experimental autoimmune encephalomyelitis mouse model; type: in vivo, C57BL/6J mice; conditions: 10 mg/kg orally twice daily for 15 days starting 52 days after MOG35-55 inoculation; vs vehicle-dosing group (2.13)
Procedure: as §1, §2

[6] = evaluation concentration 30 μmol/L
[7] = evaluation concentration 10 μmol/L

In the case of NC(=O)c1ccc(C2CCc3ccccc3N2)cc1 (stereo not drawn) [Example 38, 4-(1,2,3,4-tetrahydroquinolin-2-yl)benzamide], the EC50 [1] is reported as > 100 µM, the “neurological score reduction rate” value [2] is reported as 27.8% and the “Ferroptosis inhibition rate (%)” value [3, 6] is reported as 104.0%.

With NS(=O)(=O)c1ccc(C2CCc3cc(F)ccc3N2)cc1 (stereo not drawn) [Example 108, 4-(6-fluoro-1,2,3,4-tetrahydroquinolin-2-yl)benzenesulfonamide] the EC50 [1] was > 100 µM, the “neurological score reduction rate” value [4] was 29.4% and the “Ferroptosis inhibition rate (%)” value [3, 7] was 83.78%.

With NS(=O)(=O)c1ccc(C2CCc3cc(Cl)ccc3N2)cc1 (stereo not drawn) [Example 117, 4-(6-chloro-1,2,3,4-tetrahydroquinolin-2-yl)benzenesulfonamide] the EC50 [1] was > 100 µM, the “neurological score reduction rate” value [4] was 32.4% and the “Ferroptosis inhibition rate (%)” value [3, 7] was 76.27%.

For Cc1ccc2c(c1)CCC(c1ccc(S(N)(=O)=O)cc1)N2 (stereo not drawn) [Example 119, 4-(6-methyl-1,2,3,4-tetrahydro-quinolin-2-yl)benzenesulfonamide], the EC50 [1] was > 100 µM, the “neurological score reduction rate” value [2] was 33.3% and the “Ferroptosis inhibition rate (%)” value [3, 7] was 89.67%.

For NS(=O)(=O)c1ccc(C2CCc3ccccc3N2)cc1 (stereo not drawn) [Example 33, 4-(1,2,3,4-tetrahydroquinolin-2-yl)benzenesulfonamide], the EC50 [1] was > 100 µM, the “Ferroptosis inhibition rate (%)” value [3, 6] was 84.88% and the “neurological score reduction rate” value [5] was 38.2%.
